Results reported in ChEMBL document CHEMBL1201862, “PubChem BioAssay data set” (2004).
Structures can show the parent of a compound that is named as a salt. Activity calls are given as the source filed them.

Tests used:
[1] = viability of PTEN-deleted HCT116 cells – cell-based, HCT116 PTEN knockout, dose response (AID 1047); assay type: functional;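 further: HCT116 colon tumor cells with PTEN knocked out; cells exposed to compound for 60 hours before readout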
[2] = target: Protein-tyrosine kinase 2-beta (Homo sapiens, UniProt Q14289);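 further: potency of inhibitors of PYK2 kinase phosphorylation of poly-GT substrate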
Chain of Protein-tyrosine kinase 2-beta (Q14289 whole entry): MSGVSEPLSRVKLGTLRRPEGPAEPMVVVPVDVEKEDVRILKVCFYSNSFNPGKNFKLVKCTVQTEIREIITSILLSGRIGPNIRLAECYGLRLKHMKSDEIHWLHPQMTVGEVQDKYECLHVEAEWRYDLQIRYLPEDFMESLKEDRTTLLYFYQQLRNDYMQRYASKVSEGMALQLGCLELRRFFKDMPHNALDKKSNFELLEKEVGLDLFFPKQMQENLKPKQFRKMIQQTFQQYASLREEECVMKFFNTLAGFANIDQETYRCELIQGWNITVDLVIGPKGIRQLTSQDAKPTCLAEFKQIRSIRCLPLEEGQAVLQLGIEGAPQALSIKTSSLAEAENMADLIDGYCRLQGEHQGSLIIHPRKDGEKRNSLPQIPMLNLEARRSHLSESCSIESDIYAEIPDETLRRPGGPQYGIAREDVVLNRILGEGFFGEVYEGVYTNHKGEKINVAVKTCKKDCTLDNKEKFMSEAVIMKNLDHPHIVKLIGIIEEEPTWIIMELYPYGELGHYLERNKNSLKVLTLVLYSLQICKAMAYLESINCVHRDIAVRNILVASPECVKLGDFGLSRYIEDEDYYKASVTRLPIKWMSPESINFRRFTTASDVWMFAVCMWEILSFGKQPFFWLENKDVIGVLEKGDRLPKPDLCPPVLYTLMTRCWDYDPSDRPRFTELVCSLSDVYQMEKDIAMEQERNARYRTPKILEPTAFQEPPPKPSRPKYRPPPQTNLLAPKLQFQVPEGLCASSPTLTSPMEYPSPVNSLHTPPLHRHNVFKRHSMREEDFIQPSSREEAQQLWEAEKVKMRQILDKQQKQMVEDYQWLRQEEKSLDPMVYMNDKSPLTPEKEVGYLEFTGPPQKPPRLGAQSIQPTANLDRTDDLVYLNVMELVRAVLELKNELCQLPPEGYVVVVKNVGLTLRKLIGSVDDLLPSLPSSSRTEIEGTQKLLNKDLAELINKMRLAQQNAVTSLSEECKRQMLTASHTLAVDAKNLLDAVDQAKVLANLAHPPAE

[3] = viability of HCT116 lacking mutant beta-catenin – cell-based, human colon tumor, dose response (AID 1045); assay type: functional;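 further: HCT116 colon tumor cells with beta catenin knocked out; cells exposed to compound for 60 hours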
[4] = Luminescence Cell-Based Dose Retest to Confirm Inhibitors of Cancer Stem Cells. [Related pubchem assays (depositor defined):AID2717, AID2721]; assay type: functional; conditions: Homo sapiens
[5] = target: T1, Microphthalmia-associated transcription factor (Homo sapiens, UniProt O75030); assay: reducers of TRPM1 reporter luminescence, concentration series – cell-based, SK-MEL-5, cherry-picked, set 3, MITF inhibitor project, dose response (AID 493073); assay type: functional;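 further: SK-MEL-5 melanoma cells with luciferase driven by the MITF target TRPM1 promoter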
T1 sequence (O75030 whole entry): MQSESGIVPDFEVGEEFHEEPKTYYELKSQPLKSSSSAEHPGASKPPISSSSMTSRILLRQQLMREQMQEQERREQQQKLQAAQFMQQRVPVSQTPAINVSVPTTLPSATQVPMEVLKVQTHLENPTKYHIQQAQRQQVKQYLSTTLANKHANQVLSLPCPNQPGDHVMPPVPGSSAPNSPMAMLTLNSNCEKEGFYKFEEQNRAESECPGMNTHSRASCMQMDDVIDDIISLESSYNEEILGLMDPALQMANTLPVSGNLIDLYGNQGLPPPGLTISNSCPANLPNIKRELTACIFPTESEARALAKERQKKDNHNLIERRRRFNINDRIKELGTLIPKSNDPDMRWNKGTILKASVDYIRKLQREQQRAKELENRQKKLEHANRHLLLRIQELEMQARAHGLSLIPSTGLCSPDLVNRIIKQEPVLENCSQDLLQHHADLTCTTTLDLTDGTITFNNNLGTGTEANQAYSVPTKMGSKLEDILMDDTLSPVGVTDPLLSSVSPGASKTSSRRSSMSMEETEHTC

[6] = target: T2, Apoptotic protease-activating factor 1 (Homo sapiens, UniProt O14727); assay type: functional
T2 sequence (O14727 whole entry): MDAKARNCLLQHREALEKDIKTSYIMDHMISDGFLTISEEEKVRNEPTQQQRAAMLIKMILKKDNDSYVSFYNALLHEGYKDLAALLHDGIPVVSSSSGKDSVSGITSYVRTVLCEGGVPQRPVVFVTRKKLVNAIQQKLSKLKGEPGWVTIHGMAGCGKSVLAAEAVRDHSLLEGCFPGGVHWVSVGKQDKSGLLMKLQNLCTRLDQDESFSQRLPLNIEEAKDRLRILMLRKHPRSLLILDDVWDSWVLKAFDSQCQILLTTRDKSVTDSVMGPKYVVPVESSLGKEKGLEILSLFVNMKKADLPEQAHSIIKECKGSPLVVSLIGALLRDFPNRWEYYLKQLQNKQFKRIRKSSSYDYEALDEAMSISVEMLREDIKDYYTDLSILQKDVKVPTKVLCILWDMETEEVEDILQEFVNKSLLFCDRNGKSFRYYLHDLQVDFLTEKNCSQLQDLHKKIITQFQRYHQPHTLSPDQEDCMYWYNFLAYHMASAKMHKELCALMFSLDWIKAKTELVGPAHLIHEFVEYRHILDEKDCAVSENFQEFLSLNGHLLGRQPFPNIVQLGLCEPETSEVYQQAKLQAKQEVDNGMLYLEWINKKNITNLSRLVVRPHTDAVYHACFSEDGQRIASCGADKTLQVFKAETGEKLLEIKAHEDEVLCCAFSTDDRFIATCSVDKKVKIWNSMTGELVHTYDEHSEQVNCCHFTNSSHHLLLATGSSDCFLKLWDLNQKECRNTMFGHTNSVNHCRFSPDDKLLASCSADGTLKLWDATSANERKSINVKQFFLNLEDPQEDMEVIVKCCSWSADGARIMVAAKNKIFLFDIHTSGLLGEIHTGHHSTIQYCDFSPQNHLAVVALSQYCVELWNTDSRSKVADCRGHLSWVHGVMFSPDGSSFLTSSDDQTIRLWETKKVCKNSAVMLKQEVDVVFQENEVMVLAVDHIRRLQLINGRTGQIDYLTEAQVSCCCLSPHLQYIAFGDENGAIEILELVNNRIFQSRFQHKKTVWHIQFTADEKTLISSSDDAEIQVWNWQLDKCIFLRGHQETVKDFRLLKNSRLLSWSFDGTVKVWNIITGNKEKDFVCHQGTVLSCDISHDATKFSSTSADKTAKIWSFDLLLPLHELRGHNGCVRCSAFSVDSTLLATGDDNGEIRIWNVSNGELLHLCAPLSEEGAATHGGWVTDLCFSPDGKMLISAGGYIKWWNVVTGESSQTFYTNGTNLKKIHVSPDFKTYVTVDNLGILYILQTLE

A-375 = assay: proliferation inhibition in MITF-low A375 cells – cell-based, cherry-pick samples, set 2, counter-screen for MITF modulator project, dose response (AID 540335); assay type: functional; conditions: Homo sapiens
[7] = target: 26S proteasome non-ATPase regulatory subunit 14 (Homo sapiens, UniProt O00487); assay: inhibition of proteasome subunit RPN11 – biochemical, fluorescence polarization, uHTS hits, confirmation (AID 602368); assay type: functional
Chain of 26S proteasome non-ATPase regulatory subunit 14 (O00487 whole entry): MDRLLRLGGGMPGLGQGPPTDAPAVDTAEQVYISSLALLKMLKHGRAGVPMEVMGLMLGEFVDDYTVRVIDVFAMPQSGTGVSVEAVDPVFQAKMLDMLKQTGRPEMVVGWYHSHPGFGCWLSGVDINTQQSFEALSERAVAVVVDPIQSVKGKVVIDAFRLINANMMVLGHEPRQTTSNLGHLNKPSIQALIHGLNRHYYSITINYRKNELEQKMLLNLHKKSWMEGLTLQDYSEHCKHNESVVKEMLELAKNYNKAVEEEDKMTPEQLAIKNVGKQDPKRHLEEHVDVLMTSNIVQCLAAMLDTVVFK

[8] = target: 72 kDa type IV collagenase (Homo sapiens, UniProt P08253); assay: Dose Response validation of uHTS RPN11 inhibitor hits using a MMP-2 Fluorescence assay.; assay type: functional
Chain of 72 kDa type IV collagenase (P08253 whole entry): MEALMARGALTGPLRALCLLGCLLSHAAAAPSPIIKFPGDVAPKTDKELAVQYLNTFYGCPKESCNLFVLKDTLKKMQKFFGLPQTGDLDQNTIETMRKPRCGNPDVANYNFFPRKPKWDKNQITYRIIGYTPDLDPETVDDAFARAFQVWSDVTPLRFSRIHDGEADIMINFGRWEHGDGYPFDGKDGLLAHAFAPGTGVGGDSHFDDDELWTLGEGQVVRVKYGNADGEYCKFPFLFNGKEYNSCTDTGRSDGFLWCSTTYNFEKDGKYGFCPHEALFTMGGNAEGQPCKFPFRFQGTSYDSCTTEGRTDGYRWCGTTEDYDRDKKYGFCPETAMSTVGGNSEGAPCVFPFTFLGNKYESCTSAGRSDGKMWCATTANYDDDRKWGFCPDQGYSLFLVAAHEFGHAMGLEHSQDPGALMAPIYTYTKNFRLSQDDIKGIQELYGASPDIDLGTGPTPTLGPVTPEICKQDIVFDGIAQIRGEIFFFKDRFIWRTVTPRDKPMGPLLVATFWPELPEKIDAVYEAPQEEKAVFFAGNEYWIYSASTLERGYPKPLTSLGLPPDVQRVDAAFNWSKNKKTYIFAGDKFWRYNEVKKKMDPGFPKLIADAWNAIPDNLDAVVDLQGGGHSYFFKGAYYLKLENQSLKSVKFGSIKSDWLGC

Prothrombin = Prothrombin (Bos taurus, UniProt P00735); assay: thrombin protease inhibitors – biochemical, fluorescence polarization, uHTS hits, dose response (AID 602369); assay type: functional
[9] = target: 5-hydroxytryptamine receptor 1A (Homo sapiens, UniProt P08908); assay type: functional
Exodeoxyribonuclease V = Exodeoxyribonuclease V (Escherichia coli (strain K12), UniProt P04993+P07648+P08394); assay: RecBCD inhibition via phage-restricted bacterial growth – absorbance, V66 E. coli, mutant T4 phage, counter-screen for AddAB inhibitor project, dose response (AID 492957); assay type: functional, cell-based, Escherichia coli str. K-12 substr. MG1655
[10] = Counterscreen for AddAB inhibitors: absorbance-based bacterial cell-based high throughput dose response assay for inhibitors of bacterial viability. [Related pubchem assays (depositor defined):AID435030, AID449728, AID449731, AID488942, AID488955, AID488956]; assay type: functional
[11] = target: Voltage-gated inwardly rectifying potassium channel KCNH2 (Homo sapiens, UniProt Q12809); conditions: Potency;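 further: confirmatory quantitative high-throughput screen measuring inhibition of hERG channel activity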
Chain of Voltage-gated inwardly rectifying potassium channel KCNH2 (Q12809 whole entry): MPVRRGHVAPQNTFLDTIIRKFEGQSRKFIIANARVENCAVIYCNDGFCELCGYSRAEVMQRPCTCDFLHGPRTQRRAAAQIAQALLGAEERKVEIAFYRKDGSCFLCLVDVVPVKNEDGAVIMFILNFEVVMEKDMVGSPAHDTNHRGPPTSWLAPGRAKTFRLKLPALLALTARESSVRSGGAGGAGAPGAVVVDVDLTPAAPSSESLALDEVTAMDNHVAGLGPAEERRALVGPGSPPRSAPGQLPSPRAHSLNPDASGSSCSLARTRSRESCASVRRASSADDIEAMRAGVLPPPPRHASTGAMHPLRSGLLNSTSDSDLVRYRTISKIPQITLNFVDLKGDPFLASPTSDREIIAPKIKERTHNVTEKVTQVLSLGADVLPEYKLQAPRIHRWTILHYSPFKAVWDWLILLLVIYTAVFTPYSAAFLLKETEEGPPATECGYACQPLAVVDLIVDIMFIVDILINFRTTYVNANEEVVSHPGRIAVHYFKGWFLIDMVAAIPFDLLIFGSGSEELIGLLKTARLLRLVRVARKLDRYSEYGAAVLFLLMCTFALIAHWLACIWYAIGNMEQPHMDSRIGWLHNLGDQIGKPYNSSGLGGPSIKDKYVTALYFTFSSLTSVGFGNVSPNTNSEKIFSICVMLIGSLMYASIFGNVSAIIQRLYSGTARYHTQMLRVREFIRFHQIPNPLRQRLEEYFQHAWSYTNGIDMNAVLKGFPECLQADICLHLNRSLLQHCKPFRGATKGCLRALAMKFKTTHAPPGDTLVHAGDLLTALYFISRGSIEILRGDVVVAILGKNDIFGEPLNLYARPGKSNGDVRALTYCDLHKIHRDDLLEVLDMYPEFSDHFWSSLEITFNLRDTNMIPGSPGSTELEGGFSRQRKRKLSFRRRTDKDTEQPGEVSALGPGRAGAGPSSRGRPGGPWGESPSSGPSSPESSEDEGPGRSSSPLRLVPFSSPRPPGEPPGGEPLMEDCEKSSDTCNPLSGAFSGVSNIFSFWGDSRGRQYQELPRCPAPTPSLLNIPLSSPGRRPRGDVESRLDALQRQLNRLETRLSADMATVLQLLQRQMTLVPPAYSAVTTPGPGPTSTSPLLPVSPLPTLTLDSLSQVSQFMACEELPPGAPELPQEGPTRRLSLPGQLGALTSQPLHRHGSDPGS

Ephrin type-A receptor 4 = Ephrin type-A receptor 4 (Mus musculus, UniProt Q03137); assay: EphA4 ligand-binding antagonists – biochemical, colorimetric, mouse EphA4, primary screen (AID 689); assay type: functional
Genome polyprotein = Genome polyprotein (Hepatitis C virus, UniProt Q2Q167); assay: disruption of hepatitis C core self-association – biochemical, TR-FRET, dose response (AID 2159); design: species or system Hepacivirus hominis;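 further: blocks dimerization of HCV core protein measured by TR-FRET between tagged core106 pairs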
Chain of Genome polyprotein (Q2Q167 whole entry, the tested form may be a part): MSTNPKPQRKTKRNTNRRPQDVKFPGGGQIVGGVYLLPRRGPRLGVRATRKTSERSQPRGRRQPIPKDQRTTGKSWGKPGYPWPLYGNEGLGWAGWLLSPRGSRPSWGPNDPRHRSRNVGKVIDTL

[12] = target: T3, RNA-binding protein pos-1 (Caenorhabditis elegans, UniProt G5EF15); assay: disruptors of C. elegans POS-1 RNA interaction – biochemical, fluorescence polarization, dose response (AID 1964);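 further: purified POS-1 fused to maltose binding protein made in E. coli; potency of compounds blocking POS-1 binding to fluorescent RNA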
T3 sequence (G5EF15 whole entry): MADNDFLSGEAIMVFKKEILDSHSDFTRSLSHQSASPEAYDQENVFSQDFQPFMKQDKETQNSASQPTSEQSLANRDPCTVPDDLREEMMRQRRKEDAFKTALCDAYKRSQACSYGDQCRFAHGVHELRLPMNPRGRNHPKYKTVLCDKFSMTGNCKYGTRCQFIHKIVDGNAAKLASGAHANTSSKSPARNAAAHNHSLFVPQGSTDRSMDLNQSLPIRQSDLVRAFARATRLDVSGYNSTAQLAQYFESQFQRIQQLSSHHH

[13] = target: T4, Zinc finger protein mex-5 (Caenorhabditis elegans, UniProt Q9XUB2); assay: potency of MEX-5 RNA-binding blockers – biochemical, C. elegans, fluorescence polarization, dose response (AID 1960)
T4 sequence (Q9XUB2 whole entry): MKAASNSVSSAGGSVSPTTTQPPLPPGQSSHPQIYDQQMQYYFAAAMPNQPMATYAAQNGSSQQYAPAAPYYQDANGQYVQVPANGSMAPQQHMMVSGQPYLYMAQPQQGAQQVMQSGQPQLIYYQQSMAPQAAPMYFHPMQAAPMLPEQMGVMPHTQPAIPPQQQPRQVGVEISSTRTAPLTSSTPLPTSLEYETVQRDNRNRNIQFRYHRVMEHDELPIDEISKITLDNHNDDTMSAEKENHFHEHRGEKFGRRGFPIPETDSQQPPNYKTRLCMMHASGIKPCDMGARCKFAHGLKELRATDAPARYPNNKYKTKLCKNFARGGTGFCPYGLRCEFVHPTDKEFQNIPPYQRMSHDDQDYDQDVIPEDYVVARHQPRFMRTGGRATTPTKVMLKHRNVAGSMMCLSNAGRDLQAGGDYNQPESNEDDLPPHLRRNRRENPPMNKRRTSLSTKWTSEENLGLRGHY

[14] = target: Luciferin 4-monooxygenase (Photinus pyralis, UniProt P08659); assay: Counter Screen for Luciferase-based Assay Positives. [Related pubchem assays: 620, 618, 411 ]
Vero = assay: mammalian cell viability reduction – secondary assay, cytotoxicity control for West Nile virus antiviral project, dose response (AID 1650); assay type: functional; conditions: Chlorocebus sabaeus
[15] = target: T5, Kappa-type opioid receptor (Homo sapiens, UniProt P41145); assay type: functional
T5 sequence (P41145 whole entry): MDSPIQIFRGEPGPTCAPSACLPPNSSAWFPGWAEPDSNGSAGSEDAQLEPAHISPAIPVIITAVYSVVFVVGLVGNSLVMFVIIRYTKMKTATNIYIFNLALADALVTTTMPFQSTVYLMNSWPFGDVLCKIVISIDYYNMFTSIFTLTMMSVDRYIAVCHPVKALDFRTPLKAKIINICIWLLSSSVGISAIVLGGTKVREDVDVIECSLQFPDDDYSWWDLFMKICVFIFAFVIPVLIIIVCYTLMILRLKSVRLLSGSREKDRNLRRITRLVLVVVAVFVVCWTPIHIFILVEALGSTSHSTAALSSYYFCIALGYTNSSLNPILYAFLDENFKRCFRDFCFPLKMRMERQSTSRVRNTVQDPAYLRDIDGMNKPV

HT-1080 = assay: HT1080 cell viability loss – fluorescence readout (AID 620); assay type: functional, cell-based; conditions: Homo sapiens
Beta-galactosidase = Beta-galactosidase (Escherichia coli, UniProt Q8VNN2); assay type: functional
Chain of Beta-galactosidase (Q8VNN2 whole entry): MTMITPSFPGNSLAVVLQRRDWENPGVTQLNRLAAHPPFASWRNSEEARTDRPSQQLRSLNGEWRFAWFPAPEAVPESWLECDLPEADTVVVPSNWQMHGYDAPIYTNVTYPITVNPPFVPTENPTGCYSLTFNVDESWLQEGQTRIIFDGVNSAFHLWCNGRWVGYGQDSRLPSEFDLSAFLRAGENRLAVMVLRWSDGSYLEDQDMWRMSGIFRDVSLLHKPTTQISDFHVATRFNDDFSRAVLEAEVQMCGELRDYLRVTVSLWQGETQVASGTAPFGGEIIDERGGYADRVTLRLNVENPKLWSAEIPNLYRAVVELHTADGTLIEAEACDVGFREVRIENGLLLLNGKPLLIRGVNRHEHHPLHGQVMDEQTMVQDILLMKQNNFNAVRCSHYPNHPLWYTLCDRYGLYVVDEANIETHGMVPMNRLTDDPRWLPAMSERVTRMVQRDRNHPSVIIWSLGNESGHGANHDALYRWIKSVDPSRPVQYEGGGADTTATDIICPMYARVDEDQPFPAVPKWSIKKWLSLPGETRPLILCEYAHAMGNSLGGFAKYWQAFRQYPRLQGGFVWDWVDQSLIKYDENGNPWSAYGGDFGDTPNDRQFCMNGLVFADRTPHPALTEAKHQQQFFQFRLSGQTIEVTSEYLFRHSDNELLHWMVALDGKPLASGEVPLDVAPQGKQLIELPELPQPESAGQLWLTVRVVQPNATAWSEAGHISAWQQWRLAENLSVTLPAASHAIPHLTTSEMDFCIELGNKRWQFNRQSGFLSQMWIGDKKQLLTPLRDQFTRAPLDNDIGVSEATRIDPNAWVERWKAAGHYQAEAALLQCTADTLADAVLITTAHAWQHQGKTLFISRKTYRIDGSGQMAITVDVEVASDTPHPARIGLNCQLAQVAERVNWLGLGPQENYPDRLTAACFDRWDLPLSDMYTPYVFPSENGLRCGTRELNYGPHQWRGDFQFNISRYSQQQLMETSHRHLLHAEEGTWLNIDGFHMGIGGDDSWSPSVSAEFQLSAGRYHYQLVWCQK

[16] = target: T5, Kappa-type opioid receptor; assay type: functional; remark: listed apart in the source
[17] = HEK-293T viability loss after treatment – luminescence, T-cell screen hits, cytotoxicity control for TCR NF-kB inhibitor project, dose response (AID 489026); assay type: functional, cell-based;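 further: cells exposed to compound about 14 hours before the viability readout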
Nonstructural protein 1 = Nonstructural protein 1 (Influenza A virus, UniProt Q194T2); assay type: functional, Influenza A virus (A/California/07/2009(H1N1))
Chain of Nonstructural protein 1 (Q194T2 whole entry): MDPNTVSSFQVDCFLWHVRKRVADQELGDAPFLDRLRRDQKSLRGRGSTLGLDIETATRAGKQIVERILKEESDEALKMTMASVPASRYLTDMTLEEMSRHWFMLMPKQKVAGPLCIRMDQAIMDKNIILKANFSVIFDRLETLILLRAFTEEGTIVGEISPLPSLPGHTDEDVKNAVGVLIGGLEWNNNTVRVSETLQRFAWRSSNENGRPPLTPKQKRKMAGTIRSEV

[18] = target: T6, Heat shock factor protein 1 (Mus musculus, UniProt P38532); assay: enhancement of HSF1-driven luciferase signal – cell-based, NIH3T3, luminescence, dose retest, confirmation (AID 435004); assay type: functional;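 further: stress induced by proteasome inhibitor MG132 added 30 min after compound; luciferase reporter driven by HSF1 response element in NIH3T3 cells; actives raise luminescence as potentiators of the MG132 stress response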
T6 sequence (P38532 whole entry): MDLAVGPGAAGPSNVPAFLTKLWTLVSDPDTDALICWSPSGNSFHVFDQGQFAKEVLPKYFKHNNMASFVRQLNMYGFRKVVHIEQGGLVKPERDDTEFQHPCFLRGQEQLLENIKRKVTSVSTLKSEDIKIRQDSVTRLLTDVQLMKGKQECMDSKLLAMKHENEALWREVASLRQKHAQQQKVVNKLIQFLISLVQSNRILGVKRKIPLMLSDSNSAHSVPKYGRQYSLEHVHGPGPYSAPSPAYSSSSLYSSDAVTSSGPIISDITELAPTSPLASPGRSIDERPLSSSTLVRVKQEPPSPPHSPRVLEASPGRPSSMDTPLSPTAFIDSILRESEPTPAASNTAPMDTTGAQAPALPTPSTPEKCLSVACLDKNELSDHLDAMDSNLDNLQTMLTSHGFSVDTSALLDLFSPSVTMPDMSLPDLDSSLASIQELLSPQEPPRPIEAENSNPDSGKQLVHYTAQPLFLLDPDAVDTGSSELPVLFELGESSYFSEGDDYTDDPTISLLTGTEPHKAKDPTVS

CHO = CHO cell viability loss, potency – luminescence, cytotoxicity control for TLR9-MyD88 binding inhibitor project, dose response (AID 588339); assay type: functional, cell-based, hamster; conditions: Cricetulus griseus;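 further: CHO cells stably coexpressing TLR9 and MyD88 fusions from primary screen; compound exposure lasted 48 hours before viability readout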
[19] = target: Heat shock protein HSP 90-alpha (Homo sapiens, UniProt P07900); assay type: functional, organism-based
[20] = HIV-1 Vif–A3G interaction blockers – biochemical, TR-FRET, GST-Vif 1-94, biotin-A3G peptide, dose response retest, primary screen (AID 1117319); assay type: functional;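 further: TR-FRET signal of purified GST-Vif binding a biotinylated A3G peptide; inhibitors lower the FRET signal by blocking Vif and A3G binding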
[21] = viability loss in Vero cells – cytotoxicity control for Vif-APOBEC3G degradation inhibitor project, dose response (AID 1117358); assay type: functional; conditions: Vero

## CCOc1ccc2nc(NC3=NC(=O)CC(c4ccc(OC)cc4)N3)nc(C)c2c1 (stereo unspecified)
[1]
  EC50: 9.86 µM (active)
[2]
  IC50: 5.85 µM (active)
[3]
  EC50: 7.4 µM (active)
[4]
  AC50: 8.71 µM (active)
[5]
  AC50: 9.49 µM (active)
[6]
  IC50: 17.6 µM (active)
A-375
  AC50: 27.7 µM (active)
[7]
  IC50: 22 µM (active)
[8]
  IC50: > 100 µM (inactive)
Prothrombin
  IC50: 77.6 µM (active)

## Cc1cc(C(C)(C)C)cc(C)c1CC1=NCCN1 [XYLOMETAZOLINE HYDROCHLORIDE]
[9]
  EC50: 0.129 µM (active)
Exodeoxyribonuclease V
  IC50: > 119 µM (inactive)
[10]
  IC50: 29.7 µM (inactive)
[11]
  AC50: 14.1 µM (inconclusive)

## Cc1cc(C)c2nc(N3CCCN(C(=O)c4ccco4)CC3)c(C#N)cc2c1
Ephrin type-A receptor 4
  IC50: 16.6 µM (active)

## O=C1CSC(=S)N1/N=C/c1ccc(Cl)c([N+](=O)[O-])c1
Genome polyprotein
  IC50: > 49.8 µM (not active)
[12]
  EC50: 18.6 µM (active)
[13]
  EC50: 15.7 µM (active)

## O=S1(=O)Nc2c(ccc3cccnc23)-c2ccccc21
[14]
  EC50: 2.82 µM (active)
Vero
  CC50: 4.21 µM (active)
[15]
  IC50: 1.3 µM (active)
HT-1080
  EC50: > 50 µM (not active)
Beta-galactosidase
  EC50: > 31.5 µM (inactive)
[16]
  IC50: > 32 µM
[17]
  IC50: > 80 µM (inactive)
Nonstructural protein 1
  IC50: 3.63 µM (active)
[18]
  EC50: 2.76 µM (active)
CHO
  IC50: 1.77 µM (active)
[19]
  AC50: < 0.195 µM (active)
[20]
  IC50: > 100 µM (active)
[21]
  CC50: 13.8 µM (active)
